Experimental findings from patent US20260374766A1, “METHODS FOR TREATING CANCER” (Antares Therapeutics, Inc., priority 2022, published 2026) are described below.

Molecules are shown by their SMILES. Where two headings read alike, the source gives them in different places.

Assay [1] relates to H1299 p53 Y220C. The assay is described as follows: Cell Proliferation Assay (CellTiter-Glo, CTG), H1299 p53 Y220C (NClH1299-inducible p53 Y220C). The assay is classed as cell-based. Conditions: Homo sapiens, NCI-H1299, 120 h, NClH1299-inducible p53 Y220C cells, 5 days, CellTiter-Glo. In a few lines:
(§1)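 NClH1299 lines stably transduced with Tet-inducible p53 Y220C or R273H, plus NUGC3, were treated with compound for 5 days at 250-500 cells/well. IC50 derived from CellTiter-Glo luminescent signal after 10 min room-temperature incubation.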

The test system of assay [2] is H1299 p53 R273H. Briefly: Cell Proliferation Assay (CellTiter-Glo, CTG), H1299 p53 R273H (NClH1299-inducible p53 R273H). In kind it is cell-based. Conditions: Homo sapiens, NCI-H1299, 120 h, NClH1299-inducible p53 R273H cells, 5 days, CellTiter-Glo. In a few lines: as §1
For orientation: ATP-based viability assays read luminescence as a measure of living cells.

The target of assay [3] is T1, p53 Y220C mutant protein (amino acid residues 94-293) (Homo sapiens, UniProt P04637, Y220C).
T1 construct: p53 Y220C mutant protein (amino acid residues 94-293)
The assay is described as follows: Surface Plasmon Resonance (SPR) assay, Kd_kinetic. The assay is classed as binding. The settings on record: read-out: SPR P53 Y220C KD kinetic. In a few lines: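 Temperature held at 16 or 20 °C during Biacore 8K runs. Buffer: 50 mM Tris, pH 7.5, 100 mM NaCl, 1 mM DTT, 0.01% Brij35, 0.05% Tween-20, 1% DMSO.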

Assay [4] addresses T1, p53 Y220C mutant protein (amino acid residues 94-293). Briefly: Thermal Shift Assay (TSA), dTM. In kind it is binding. Conditions: 10 uM compound; p53 Y220C; read-out: TSA P53 Y220C dTM. In a few lines:
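5 μM p53 Y220C (residues 94-293) incubated 3 h at 20 °C with 10 μM or 100 μM compound in 20 mM HEPES pH 7.4, 100 mM NaCl, 0.01% Pluronic F-127, 1% DMSO plus Sypro Orange. Melt from 30 to 50 °C at 0.03 °C/s; TM from Boltzmann two-state fit.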

Assay [5] addresses p53 Y220C (Homo sapiens, UniProt P04637, Y220C). The assay is described as follows: Luciferase Reporter Assay (Luc), p53 response element, NClH1299 cells with inducible p53 Y220C. The assay is classed as cell-based. Conditions: luciferase reporter, NClH1299 inducible p53 Y220C, 6 hour; for AC50: read-out: Luc P53 Y220C AC50. In a few lines:
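H1299 cells induced with 0.5 ug/mL doxycycline for 24 hours, then exposed to compound for 6 hours. p53 response-element luciferase read by One-Glo luminescence after 5 min shaking at room temperature.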
For orientation: Reporter assays use an easily measured gene product as a stand-in for the process of interest.

Assay [6] concerns NUGC3 p53 Y220C. Briefly: Cell Proliferation Assay (CellTiter-Glo, CTG), NUGC3 p53 Y220C. In kind it is cell-based. Conditions: Homo sapiens, NUGC-3, 120 h, NUGC3 cells, 5 days, CellTiter-Glo. In a few lines:
as §1

For the compound `COc1cc(S(C)(=O)=O)ccc1NCC#Cc1cc2c(N[C@@H]3CCN(C)C[C@@H]3F)cccn2c1SC(F)(F)F` [Example 341], the figures for the IC50 in assay [1], in assay [2] and in assay [6] were less than 750 nM, 5 to 8 µM and less than 750 nM, respectively. In addition, the Kd (commonly the constant that tells how readily two partners part at equilibrium) in assay [3] (SPR, p53 Y220C) is less than 10 nM. Besides, the ΔTm at 10 µM in assay [4] is not below 10 °C. Moreover, the AC50 (in general, the concentration giving half of the maximal activity seen) in assay [5] is less than 750 nM. Further, the Emax (commonly the size of the effect at its maximum, as opposed to the concentration needed) in assay [5] is more than 90%.
On to `COc1cc(S(C)(=O)=O)ccc1NCC#Cc1cc2c(N[C@@H]3CCN(C)C[C@@H]3F)nccn2c1SC(F)(F)F` [Example 342], for which the IC50 – broadly, the concentration needed to halve the response being measured – in assay [1] is less than 750 nM; in assay [2], 5 to 8 µM; in assay [6], less than 750 nM. Moreover, the equilibrium dissociation constant (Kd) in assay [3] is less than 10 nM. Also, in assay [4], the ΔTm at 10 µM was not below 10 °C. Moreover, in assay [5], the AC50 is less than 750 nM. In assay [5], this compound returned an Emax of more than 90%.
As for `CNC(=O)c1ccc(OC)c(NCC#Cc2cc3c(N[C@@H]4CCN(C)C[C@@H]4F)cccn3c2SC(F)F)c1` [Example 343], the IC50 in assay [1] is less than 750 nM; in assay [2], not below 10 µM; in assay [6], less than 750 nM. Also, in assay [3] (SPR, p53 Y220C), the Kd was less than 10 nM. Also, in assay [4], the ΔTm at 10 µM is not below 10 °C. Also, in assay [5], the AC50 is less than 750 nM. The compound further showed an Emax in assay [5] of more than 90%.
Take `COc1cc(S(C)(=O)=O)ccc1NCC#Cc1cc2c(N[C@@H]3CCN(C)C[C@@H]3F)cccn2c1SC(F)F` [Example 344]: the IC50 was less than 750 nM in assay [1], 5 to 8 µM in assay [2] and less than 750 nM in assay [6]. Besides, in assay [3] (SPR, p53 Y220C), the Kd was less than 10 nM. For the same compound, the ΔTm at 10 µM in assay [4] was not below 10 °C. Besides, in assay [5], the AC50 is less than 750 nM. Moreover, the maximal effect (Emax) in assay [5] was more than 90%.
For `CNC(=O)c1ccc(OC)c(NCC#Cc2cc3c(N[C@@H]4CCN(C)C[C@@H]4F)cccn3c2SC(F)(F)F)n1` [Example 345], the 50% inhibitory concentration (IC50) in assay [1] was less than 750 nM; in assay [2], 8 to 10 µM; in assay [6] it was less than 750 nM. Besides, the Kd in assay [3] (SPR, p53 Y220C) was less than 10 nM. The ΔTm at 10 µM in assay [4] was not below 10 °C. In addition, the half-maximal activity concentration (AC50) in assay [5] was less than 750 nM. The same compound registered an Emax in assay [5] of 80 to 90%.
On to `COc1cc(P(C)(C)=O)ccc1NCC#Cc1cc2c(N[C@@H]3CCN(C)C[C@@H]3F)cccn2c1SC(F)(F)F` [Example 346], for which the IC50 in assay [1] was less than 750 nM; in assay [2], 8 to 10 µM; in assay [6], less than 750 nM. Also, in assay [3] (SPR, p53 Y220C), the Kd is less than 10 nM. Moreover, the ΔTm at 10 µM in assay [4] is not below 10 °C. Moreover, in assay [5], the AC50 was less than 750 nM. For the same compound, the Emax in assay [5] was more than 90%.
As to `CNC(=O)c1cc(F)c(OC)c(NCC#Cc2nc3c(N[C@@H]4CCN(C)C[C@@H]4F)nccn3c2SC(F)(F)F)c1` [Example 347], the IC50 was less than 750 nM in assay [1], not below 10 µM in assay [2] and less than 750 nM in assay [6]. Also, in assay [3] (SPR, p53 Y220C), the Kd was less than 10 nM. Also, in assay [4], the ΔTm at 10 µM was not below 10 °C. The half-maximal activity concentration (AC50) in assay [5] was less than 750 nM. Moreover, in assay [5], the Emax was more than 90%.
As for `CNC(=O)c1ccc(C(=O)NC)c(NCC#Cc2cc3c(N[C@@H]4CCN(C)C[C@@H]4F)nccn3c2SC(F)(F)F)c1` [Example 348], the results for the IC50 in assay [1], in assay [2] and in assay [6] were less than 750 nM, not below 10 µM and less than 750 nM, respectively. Further, the Kd in assay [3] (SPR, p53 Y220C) is less than 10 nM. In assay [4], the ΔTm at 10 µM is not below 10 °C. For the same compound, the AC50 in assay [5] was less than 750 nM. Further, the Emax in assay [5] is more than 90%.
With `COc1cc(P(C)(C)=O)ccc1NCC#Cc1cc2c(N[C@@H]3CCN(C)C[C@@H]3F)cccn2c1SC(F)F` [Example 349], the figures for the half-inhibitory concentration (IC50) in assay [1], in assay [2] and in assay [6] were less than 750 nM, not below 10 µM and less than 750 nM, respectively. Besides, the Kd in assay [3] (SPR, p53 Y220C) is less than 10 nM. Also, the ΔTm at 10 µM in assay [4] is not below 10 °C. Also, in assay [5], the AC50 is less than 750 nM. Also, in assay [5], the Emax fell in the range of 80 to 90%.
